Reference: US8431565B2 (priority 2007, dated 2013)

How the values were obtained:
[1] = biological target: human CB1 receptor (hCB1) (Homo sapiens, UniProt P21554); type: cell-based
rat CB2 receptor (rCB2) = biological target: T1, rat CB2 receptor (rCB2) (Rattus norvegicus, UniProt Q9QZN9)
T1 sequence (Q9QZN9 1-360): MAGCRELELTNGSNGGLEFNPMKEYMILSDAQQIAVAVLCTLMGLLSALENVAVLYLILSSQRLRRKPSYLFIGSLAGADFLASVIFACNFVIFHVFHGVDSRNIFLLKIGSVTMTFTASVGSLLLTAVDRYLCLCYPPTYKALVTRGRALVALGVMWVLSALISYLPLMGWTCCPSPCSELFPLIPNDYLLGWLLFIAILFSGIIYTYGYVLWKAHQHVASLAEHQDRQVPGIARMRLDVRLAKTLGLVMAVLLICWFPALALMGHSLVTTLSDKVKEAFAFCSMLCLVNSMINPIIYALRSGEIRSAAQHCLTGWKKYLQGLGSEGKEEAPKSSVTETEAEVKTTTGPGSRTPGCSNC

Male ICR mice = assay: Inhibition of acetic acid-induced writhing; type: in vivo, mouse; details: subcutaneous 3, 10 and 30 mg/kg, FIG. 2
Description: 12: 525-562; Ramabadran and Bansinath (1986) Pharm. Res. 3: 263-270]. Intraperitoneal administration of dilute acetic acid solution causes a writhing behavior in mice. A writhe is defined as a contraction of the abdominal muscles accompanied by an extension of the forelimbs and elongation of the body. The number of writhes observed in the presence and absence of test compounds is counted to determine the analgesic activity of the compounds.
Male ICR mice, 20-40 grams in weight, were weighed and placed in individual observation chambers (usually a 4000 ml beaker) with a fine layer of rodent bedding at the bottom. To determine the activity and potency of test compounds, different doses of the compound solution or vehicle were injected subcutaneously in the back of the neck 30 minutes prior to administration of acetic acid solution. After administration of the compound or vehicle control, mice were returned to their individual observation chambers awaiting the intraperitoneal administration of acetic acid solution. Thirty minutes later, 10 ml/kg of a 0.6% (v/v) acetic acid solution was then injected into the right lower quadrant of the abdomen. […] The number of writhes was counted over a 15-min period starting from the time of acetic acid injection. Raw data were analyzed using a one-way ANOVA followed by Dunnett's post-tests. […]

rats [2] = assay: Spinal nerve ligation (SNL) model of neuropathic pain; type: in vivo; details: rat; oral 3, 10 and 30 mg/kg; FIG. 4
Description: The SNL model (Kim and Chung 1992) was used to induce chronic neuropathic pain in rats. The rats were anesthetized with isoflurane, the left L5 transverse process was removed, and the L5 and L6 spinal nerves were tightly ligated with 6-0 silk suture. The wound was then closed with internal sutures and external staples. Following at least seven days post SNL, baseline, post-injury and post-treatment values for non-noxious mechanical sensitivity were evaluated using eight Semmes-Weinstein filaments (Stoelting, Wood Dale, Ill., USA) with varying stiffness (0.4, 0.7, 1.2, 2.0, 3.6, 5.5, 8.5, and 15 g) according to the up-down method (Chaplan et al. 1994). Animals were placed on a perforated metallic platform and allowed to acclimate to their surroundings for a minimum of thirty minutes before testing. The mean and standard error of the mean (SEM) were determined for the injured paw in each treatment group. Since this stimulus is normally not considered painful, significant injury-induced increases in responsiveness in this test are interpreted as a measure of mechanical allodynia. The dose which elicited 50% attenuation of mechanical hypersensitivity (ED50) was determined using linear regression analysis. Results obtained after oral administration of compound 317 at 3, 10 and 30 mg/kg and with compound 366 at 1, 3 and 10 mg/kg are shown in FIG. 4.

rats [3] = assay: Carrageenan model of acute inflammation; type: in vivo; details: rat
Male Sprague-Dawley rats = assay: Complete Freund's Adjuvant (CFA) model of inflammatory pain, Randall-Selitto paw pressure; type: in vivo; details: rat, intraperitoneal
Description: Male Sprague-Dawley rats (Hsd:Sprague-Dawley®™ SD®™, Harlan, Indianapolis, Ind.) weighing 201±1 grams, were housed three per cage. Animals had free access to food and water and were maintained on a twelve hour light/dark schedule for the entire duration of the experiment. Approximately 12 hours prior to behavioral testing, animals were placed on wire mesh bottom cages with free access to water but no access to food. Test compounds were prepared in 50% PEG-400 (Sigma-Aldrich, cat. P3265). Indomethacin (Fluka, cat 57413) was suspended in 0.5% methylcellulose (Sigma-Aldrich, cat. 274429). Groups of eight animals were anesthetized with 2-3% isoflurane and local inflammation induced by 50 μl CFA (Sigma-Aldrich, cat F5881, Mycobacterium tuberculosis 1 mg/ml) injected subcutaneously into the plantar surface of the left paw.
Assessment of mechanical hyperalgesia: Baseline and post-treatment withdrawal thresholds to a noxious mechanical stimulus were measured using the Randall-Selitto paw pressure apparatus (Ugo Basile Analgesymeter, model 7200). […] Mechanical hyperalgesia was measured using the Randall-Selitto paw pressure device before CFA injection and after intraperitoneal (i.p.) compound administration over a twenty-four-hour period. The mean and standard error of the mean (SEM) were determined for the injured and normal paws for each treatment group.

human CB1 receptor (hCB1), sequence (P21554 whole entry): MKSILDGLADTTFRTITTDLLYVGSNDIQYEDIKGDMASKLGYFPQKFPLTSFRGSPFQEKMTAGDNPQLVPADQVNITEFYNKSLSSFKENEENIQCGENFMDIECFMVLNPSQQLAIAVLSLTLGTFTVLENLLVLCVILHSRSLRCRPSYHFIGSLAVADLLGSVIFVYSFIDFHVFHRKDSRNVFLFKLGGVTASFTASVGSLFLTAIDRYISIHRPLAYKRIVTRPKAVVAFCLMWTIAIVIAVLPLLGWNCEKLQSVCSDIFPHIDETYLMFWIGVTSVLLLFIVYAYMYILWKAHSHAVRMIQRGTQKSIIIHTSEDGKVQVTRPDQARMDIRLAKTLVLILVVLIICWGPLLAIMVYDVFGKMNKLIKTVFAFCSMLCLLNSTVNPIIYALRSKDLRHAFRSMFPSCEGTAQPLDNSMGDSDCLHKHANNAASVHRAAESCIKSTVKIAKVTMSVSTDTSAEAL

Compound | EC50 [1] [nM] | EC50 (rat CB2 receptor (rCB2)) [nM] | inhibition of acetic acid-induced writhing (Male ICR mice) | response in the neuropathic pain model (rats [2]) | also measured
CNC(=O)[C@@H](NC(=O)c1nc(-c2ccc3c(c2)OCCO3)n2c1CN(C)CCC2)C(C)(C)C [Compound 326, (S)-3-(2,3-dihydrobenzo[b][1,4]dioxin-6-yl)-N-(3,3-dimethyl-1-(methylamino)-1-oxobutan-2-yl)-8-methyl-6,7,8,9-tetrahydro-5H-imidazo[1,5-a][1,4]diazepine-1-carboxamide] | > 10000 | 10 to 100 |  |  | 
CNC(=O)[C@@H](NC(=O)c1nc(-c2ccc(Cl)cc2F)n2c1CN(C)CCC2)C(C)(C)C [Compound 366, (S)-3-(4-chloro-2-fluorophenyl)-N-(3,3-dimethyl-1-(methylamino)-1-oxobutan-2-yl)-8-methyl-6,7,8,9-tetrahydro-5H-imidazo[1,5-a][1,4]diazepine-1-carboxamide] |  |  | dose response in the inhibition of acetic acid-induced writhing | dose response in the neuropathic pain model | inhibition of carrageenan-induced hyper-sensitivity (rats [3]; oral 1, 3 and 10 mg/kg, FIG. 3B): dose response in the inhibition of carrageenan-induced hyper-sensitivity
CNC(=O)[C@@H](NC(=O)c1nc(-c2ccccc2)n2c1CN(C)CCC2)C(C)(C)C [Compound 317, (S)—N-(3,3-dimethyl-1-(methylamino)-1-oxobutan-2-yl)-8-methyl-3-phenyl-6,7,8,9-tetrahydro-5H-imidazo[1,5-a][1,4]diazepine-1-carboxamide] |  |  | dose response in the inhibition of acetic acid-induced writhing | dose response in the neuropathic pain model | inhibition of carrageenan-induced hyper-sensitivity (rats [3]; sub-cutaneous 3, 10 and 30 mg/kg, FIG. 3A): dose response in the inhibition of carrageenan-induced hyper-sensitivity
CCS(=O)(=O)N1CCn2c(-c3ccccc3)nc(C(=O)N[C@H](C(=O)NC)C(C)(C)C)c2C1 [Compound 91, (S)—N-(3,3-dimethyl-1-(methylamino)-1-oxobutan-2-yl)-7-(ethylsulfonyl)-3-phenyl-5,6,7,8-tetrahydroimidazo[1,5-a]pyrazine-1-carboxamide] |  | 10 to 100 |  |  | side effects during the experiment (Male Sprague-Dawley rats; CFA experiment): No side effects were observed; effect on paw withdrawal threshold after intrapaw CFA (Male Sprague-Dawley rats; vs vehicle over twenty-four hours, FIG. 1): anti-hyperalgesic effect
CN1CCn2c(-c3ccc(Cl)cc3F)nc(C(=O)N3CCC4(CCNC4=O)CC3)c2C1 [Compound 220, 8-(3-(4-chloro-2-fluorophenyl)-7-methyl-5,6,7,8-tetrahydroimidazo[1,5-a]pyrazine-1-carbonyl)-2,8-diazaspiro[4.5]decan-1-one] | > 10000 | > 10000 |  |  | 
